Measurements from PubChem BioAssay AID1963843 (Molecular Pharmacology Branch, DTP, NCI, 2024).

Test system: 616215-338-R-J1-PDC complex spheroid viability
Assay: Anticancer human tumor 616215-338-R-J1-PDC patient-derived colon adenocarcinoma cell line growth inhibition [POLQ]
Conditions: for IC50: curve of first compound; for viability, T/C: stronger effect = lower value
Summary of the method: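 Growth inhibition in 3D: complex spheroids (tumor PDC, HUVEC, MSC) treated with POLQ inhibitor combinations; where Cmax unknown, highest tested concentration 10 microM, except SN-38 at 1 microM.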

[1] = second compound 0.0316 µM, first compound 0.0316 µM
[2] = second compound 0.0316 µM, first compound 0.1 µM
[3] = second compound 0.1 µM, first compound 0.0316 µM
[4] = second compound 0.1 µM, first compound 0.1 µM
[5] = second compound 0.316 µM, first compound 0.0316 µM
[6] = second compound 0.316 µM, first compound 0.1 µM
[7] = second compound 1 µM, first compound 0.0316 µM
[8] = second compound 1 µM, first compound 0.1 µM
[9] = second compound 3.16 µM, first compound 0.0316 µM
[10] = second compound 3.16 µM, first compound 0.1 µM
[11] = second compound 10 µM, first compound 0.0316 µM
[12] = second compound 10 µM, first compound 0.1 µM
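Further: spheroids exposed to compounds for one week before readout.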
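Wherever viability, T/C is given: percent viability relative to DMSO vehicle wells taken as 100%.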

Q: Which IC50 (second compound 0.0316 µM) does the source give for `CCCS(=O)(=O)Nc1ccc(F)c(C(=O)c2c[nH]c3ncc(-c4ccc(Cl)cc4)cc23)c1F` + Cc1cccc(N(C)C(=O)C2C(O)CCN2c2nc(C)cc(C(F)(F)F)c2C#N)c1 here?
A: The IC50 was 5.76 µM.

Q: And the IC50 (second compound 0.1 µM)?
A: Its IC50 is 5.71 µM.

Q: What about the IC50 (second compound 0.316 µM) of the same compound?
A: Its IC50 is 5.24 µM.

Q: And the IC50 (second compound 1 µM)?
A: Its IC50 is 5.51 µM.

Q: And the IC50 (second compound 3.16 µM)?
A: The IC50 was 5.31 µM.

Q: And the IC50 (second compound 10 µM)?
A: Its IC50 is 4.29 µM.

Q: What about the viability, T/C [1] of the same compound?
A: The viability, T/C was 114%.

Q: What about the viability, T/C [2] of the same compound?
A: The viability, T/C was 95.5%.

Q: What about the viability, T/C (second compound 0.0316 µM, first compound 0.316 µM) of the same compound?
A: The viability, T/C was 101%.

Q: And the viability, T/C (second compound 0.0316 µM, first compound 1 µM)?
A: Its viability, T/C is 105%.

Q: And the viability, T/C (second compound 0.0316 µM, first compound 3.16 µM)?
A: Its viability, T/C is 89.5%.

Q: What about the viability, T/C (second compound 0.0316 µM, first compound 10 µM) of the same compound?
A: Its viability, T/C is 13.4%.

Q: And the viability, T/C [3]?
A: Its viability, T/C is 115%.

Q: And the viability, T/C [4]?
A: Its viability, T/C is 109%.

Q: What about the viability, T/C (second compound 0.1 µM, first compound 0.316 µM) of the same compound?
A: Its viability, T/C is 101%.

Q: And the viability, T/C (second compound 0.1 µM, first compound 1 µM)?
A: Its viability, T/C is 108%.

Q: And the viability, T/C (second compound 0.1 µM, first compound 3.16 µM)?
A: Its viability, T/C is 91%.

Q: What about the viability, T/C (second compound 0.1 µM, first compound 10 µM) of the same compound?
A: The viability, T/C was 11.2%.

Q: And the viability, T/C [5]?
A: The viability, T/C was 112%.

Q: And the viability, T/C [6]?
A: Its viability, T/C is 107%.

Q: And the viability, T/C (second compound 0.316 µM, first compound 0.316 µM)?
A: Its viability, T/C is 99%.

Q: And the viability, T/C (second compound 0.316 µM, first compound 1 µM)?
A: Its viability, T/C is 97.5%.

Q: And the viability, T/C (second compound 0.316 µM, first compound 3.16 µM)?
A: The viability, T/C was 83.4%.

Q: And the viability, T/C (second compound 0.316 µM, first compound 10 µM)?
A: The viability, T/C was 9.28%.

Q: What about the viability, T/C [7] of the same compound?
A: The viability, T/C was 99.5%.

Q: And the viability, T/C [8]?
A: Its viability, T/C is 101%.

Q: What about the viability, T/C (second compound 1 µM, first compound 0.316 µM) of the same compound?
A: The viability, T/C was 104%.

Q: And the viability, T/C (second compound 1 µM, first compound 1 µM)?
A: Its viability, T/C is 105%.

Q: And the viability, T/C (second compound 1 µM, first compound 3.16 µM)?
A: The viability, T/C was 86.9%.

Q: What about the viability, T/C (second compound 1 µM, first compound 10 µM) of the same compound?
A: The viability, T/C was 10.2%.

Q: What about the viability, T/C [9] of the same compound?
A: The viability, T/C was 114%.

Q: And the viability, T/C [10]?
A: Its viability, T/C is 98.6%.

Q: And the viability, T/C (second compound 3.16 µM, first compound 0.316 µM)?
A: The viability, T/C was 99.4%.

Q: What about the viability, T/C (second compound 3.16 µM, first compound 1 µM) of the same compound?
A: Its viability, T/C is 101%.

Q: What about the viability, T/C (second compound 3.16 µM, first compound 3.16 µM) of the same compound?
A: The viability, T/C was 83.2%.

Q: What about the viability, T/C (second compound 3.16 µM, first compound 10 µM) of the same compound?
A: Its viability, T/C is 10%.

Q: And the viability, T/C [11]?
A: Its viability, T/C is 105%.

Q: And the viability, T/C [12]?
A: Its viability, T/C is 100%.

Q: What about the viability, T/C (second compound 10 µM, first compound 0.316 µM) of the same compound?
A: Its viability, T/C is 92.7%.

Q: And the viability, T/C (second compound 10 µM, first compound 1 µM)?
A: The viability, T/C was 98.1%.

Q: What about the viability, T/C (second compound 10 µM, first compound 3.16 µM) of the same compound?
A: The viability, T/C was 65.8%.

Q: What about the viability, T/C (second compound 10 µM, first compound 10 µM) of the same compound?
A: The viability, T/C was 7.05%.

Q: How did the IC50 (second compound 0.0316 µM) turn out when `Cn1ncnc1[C@H]1c2n[nH]c(=O)c3cc(F)cc(c23)N[C@@H]1c1ccc(F)cc1` + Cc1cccc(N(C)C(=O)C2C(O)CCN2c2nc(C)cc(C(F)(F)F)c2C#N)c1 was run?
A: Its IC50 is greater than 0.1 µM.

Q: What about the IC50 (second compound 0.1 µM) of the same compound?
A: The IC50 was greater than 0.1 µM.

Q: And the IC50 (second compound 0.316 µM)?
A: Its IC50 is greater than 0.1 µM.

Q: What about the IC50 (second compound 1 µM) of the same compound?
A: Its IC50 is greater than 0.1 µM.

Q: What about the IC50 (second compound 3.16 µM) of the same compound?
A: Its IC50 is greater than 0.1 µM.

Q: What about the IC50 (second compound 10 µM) of the same compound?
A: Its IC50 is greater than 0.1 µM.

Q: What about the viability, T/C (second compound 0.0316 µM, first compound 0.000316 µM) of the same compound?
A: Its viability, T/C is 106%.

Q: And the viability, T/C (second compound 0.0316 µM, first compound 0.001 µM)?
A: Its viability, T/C is 87.5%.

Q: And the viability, T/C (second compound 0.0316 µM, first compound 0.00316 µM)?
A: The viability, T/C was 92.1%.

Q: What about the viability, T/C (second compound 0.0316 µM, first compound 0.01 µM) of the same compound?
A: Its viability, T/C is 102%.

Q: And the viability, T/C [1]?
A: The viability, T/C was 105%.

Q: And the viability, T/C [2]?
A: Its viability, T/C is 99.3%.

Q: What about the viability, T/C (second compound 0.1 µM, first compound 0.000316 µM) of the same compound?
A: Its viability, T/C is 108%.

Q: What about the viability, T/C (second compound 0.1 µM, first compound 0.001 µM) of the same compound?
A: The viability, T/C was 99.5%.

Q: What about the viability, T/C (second compound 0.1 µM, first compound 0.00316 µM) of the same compound?
A: Its viability, T/C is 101%.

Q: And the viability, T/C (second compound 0.1 µM, first compound 0.01 µM)?
A: Its viability, T/C is 105%.

Q: What about the viability, T/C [3] of the same compound?
A: The viability, T/C was 108%.

Q: And the viability, T/C [4]?
A: Its viability, T/C is 108%.

Q: And the viability, T/C (second compound 0.316 µM, first compound 0.000316 µM)?
A: Its viability, T/C is 104%.

Q: What about the viability, T/C (second compound 0.316 µM, first compound 0.001 µM) of the same compound?
A: Its viability, T/C is 104%.

Q: What about the viability, T/C (second compound 0.316 µM, first compound 0.00316 µM) of the same compound?
A: The viability, T/C was 109%.

Q: And the viability, T/C (second compound 0.316 µM, first compound 0.01 µM)?
A: Its viability, T/C is 105%.

Q: And the viability, T/C [5]?
A: The viability, T/C was 110%.

Q: What about the viability, T/C [6] of the same compound?
A: The viability, T/C was 97.3%.

Q: And the viability, T/C (second compound 1 µM, first compound 0.000316 µM)?
A: The viability, T/C was 101%.

Q: What about the viability, T/C (second compound 1 µM, first compound 0.001 µM) of the same compound?
A: The viability, T/C was 101%.

Q: And the viability, T/C (second compound 1 µM, first compound 0.00316 µM)?
A: Its viability, T/C is 111%.

Q: What about the viability, T/C (second compound 1 µM, first compound 0.01 µM) of the same compound?
A: The viability, T/C was 106%.

Q: What about the viability, T/C [7] of the same compound?
A: Its viability, T/C is 115%.

Q: And the viability, T/C [8]?
A: The viability, T/C was 104%.

Q: And the viability, T/C (second compound 3.16 µM, first compound 0.000316 µM)?
A: Its viability, T/C is 116%.

Q: And the viability, T/C (second compound 3.16 µM, first compound 0.001 µM)?
A: Its viability, T/C is 106%.

Q: What about the viability, T/C (second compound 3.16 µM, first compound 0.00316 µM) of the same compound?
A: The viability, T/C was 101%.

Q: What about the viability, T/C (second compound 3.16 µM, first compound 0.01 µM) of the same compound?
A: The viability, T/C was 109%.

Q: What about the viability, T/C [9] of the same compound?
A: The viability, T/C was 104%.

Q: And the viability, T/C [10]?
A: Its viability, T/C is 97.1%.

Q: And the viability, T/C (second compound 10 µM, first compound 0.000316 µM)?
A: Its viability, T/C is 106%.

Q: What about the viability, T/C (second compound 10 µM, first compound 0.001 µM) of the same compound?
A: The viability, T/C was 107%.

Q: And the viability, T/C (second compound 10 µM, first compound 0.00316 µM)?
A: Its viability, T/C is 111%.

Q: And the viability, T/C (second compound 10 µM, first compound 0.01 µM)?
A: The viability, T/C was 102%.

Q: And the viability, T/C [11]?
A: Its viability, T/C is 99.1%.

Q: And the viability, T/C [12]?
A: Its viability, T/C is 98.6%.
